Laboratory results from patent publication US20240390417A1, “MNO NANOMATERIAL BASED INHIBITORS OF INFLAMMATION AND SARS-COV-2 VIRAL REPLICATION” (Duke University, priority 2015, published 2024).

Columns and labels:
calf thymus DNA = assay: PicoGreen DNA-binding assay; settings: TE buffer, unbound PicoGreen-labeled DNA
Procedure: The fluorescence intensity of the unbound Picogreen®-DNA complex at 520 nm was measured with a multiwell plate reader via excitation at 490 nm.
Inflammatory circulating cfDNA released by PTT-damaged host cells might cause a severe inflammatory response, which may be mitigated by the scavenging of cfDNA. Therefore, to interrogate the cfDNA scavenging ability of the various nanoparticles, the inventors investigated the calf thymus DNA binding affinity of the nanoparticles in Tris-EDTA (TE) buffer with and without 10% FBS by measuring unbound PicoGreen®-labeled DNA (FIGS. 5C and 5D).

4T1 tumor-bearing mice = assay: PTT-induced inflammation, 4T1 metastasis tumor model; settings: intravenous three times per week
Procedure: The fluorescent signal intensity was recorded on the IVIS® instrument at different time intervals.
The ability of the MnO and MnO@Cucumin nanoparticles to mitigate the PTT-induced inflammatory response was examined on 4T1 tumor-bearing mice. […] The 4T1 tumor-bearing mice received photothermal therapy first, and then were further treated with different formulations by intravenous injection three times per week.

| SMILES | DNA binding affinity (calf thymus DNA) | body weight (4T1 tumor-bearing mice; after laser (PTT)) | tumor recurrence and metastasis (4T1 tumor-bearing mice; after laser (PTT)) | effect on body weight of the mice (4T1 tumor-bearing mice; without laser) | effect on size of the tumors (4T1 tumor-bearing mice; without laser) |
| --- | --- | --- | --- | --- | --- |
| COc1cc(/C=C/C(=O)CC(=O)/C=C/c2ccc(O)c(OC)c2)ccc1O [curcumin] | negligible DNA binding ability | increased body weight | inhibited tumor recurrence and metastasis | did not show obvious effects | did not show obvious effects |
| O=C(OC[C@H]1O[C@@H](OC(=O)c2cc(O)c(O)c(OC(=O)c3cc(O)c(O)c(O)c3)c2)[C@H](OC(=O)c2cc(O)c(O)c(OC(=O)c3cc(O)c(O)c(O)c3)c2)[C@@H](OC(=O)c2cc(O)c(O)c(OC(=O)c3cc(O)c(O)c(O)c3)c2)[C@@H]1OC(=O)c1cc(O)c(O)c(OC(=O)c2cc(O)c(O)c(O)c2)c1)c1cc(O)c(O)c(OC(=O)c2cc(O)c(O)c(O)c2)c1 [tannic acid] | can bind to DNA | – | – | – | – |
